The text below walks through data of DBAASP.

Converted amounts (≈) assume the structure as drawn. A value given as a limit tells only on which side of the number the result lay.

What all share (test): ≥ marks a high value that may be exact or a test limit, other limits are often not marked, values filed in µg/mL are converted to µM
For assay [1], the system named is Escherichia coli UB1005.
For assay [2], the system named is Staphylococcus epidermidis.
The subject of assay [3] is Staphylococcus aureus ATCC 25923.
Assay [4] deals with Salmonella enterica serovar Typhimurium.
Assay [5] deals with Pseudomonas aeruginosa H103.
In assay [6] the test system is Enterococcus faecalis ATCC 29212.
Assay [7] relates to Candida albicans.
Assay [8] has as its system Candida albicans ATCC 2002.
The subject of assay [9] is Bacillus megaterium.
Assay [10] concerns Klebsiella pneumoniae.
Assay [11] deals with Staphylococcus aureus ATCC 2592.
For assay [12], the system named is Pseudomonas aeruginosa CMCCB 10104.
Assay [13] relates to Shigella dysenteriae.
Assay [14] deals with Escherichia coli ATCC 25922.
For assay [15], the system named is Bacillus subtilis ATCC 23857.
Assay [16] deals with Staphylococcus aureus ATCC 29213.
Assay [17] concerns Staphylococcus epidermidis ATCC 12228.
Assay [18] has as its system Escherichia coli K-12.
The subject of assay [19] is Staphylococcus aureus ATCC 6538.
Assay [20] relates to Pseudomonas aeruginosa ATCC 27853.
The test system of assay [21] is Salmonella enterica subsp. enterica serovar Typhimurium ATCC 14028.
In assay [22] the test system is Bacillus subtilis ATCC 6633.
The subject of assay [23] is Staphylococcus aureus ATCC 6538P.
In assay [24] the test system is Klebsiella pneumoniae ATCC 10031.
Assay [25] has as its system Shigella dysenteriae ATCC 9752.

`CC[C@H](C)[C@H](NC(=O)[C@@H](N)Cc1ccccc1)C(=O)N[C@@H](CCCCN)C(=O)N[C@@H](Cc1c[nH]c2ccccc12)C(=O)N[C@@H](CCCCN)C(=O)N[C@@H](Cc1ccccc1)C(=O)N[C@@H](CCCN=C(N)N)C(=O)N[C@@H](Cc1c[nH]c2ccccc12)C(=O)N[C@@H](Cc1c[nH]c2ccccc12)C(=O)N[C@@H](CCCCN)C(=O)N[C@@H](Cc1c[nH]c2ccccc12)C(=O)N[C@@H](CCCN=C(N)N)C(=O)N[C@@H](CCCCN)C(=O)O` [FIKWKFRWWKWRK]: the MIC in [1] was 1.5 µM (≈ 2.99 µg/mL); in assay [2], 0.7 µM (≈ 1.4 µg/mL); in assay [3] it was 0.7 µM (≈ 1.4 µg/mL); in [4], 1.5 µM (≈ 2.99 µg/mL); in assay [5], 6 µM (≈ 12 µg/mL); in assay [6], 1.5 µM (≈ 2.99 µg/mL). Also, in assay [7], the MIC was found to be 3 µM (≈ 5.99 µg/mL).
Take `CC[C@H](C)[C@H](NC(=O)CN)C(=O)NCC(=O)NCC(=O)N[C@@H](CCCCN)C(=O)N[C@H](C(=O)N[C@@H](CC(C)C)C(=O)N[C@@H](CO)C(=O)NCC(=O)N[C@@H](CC(C)C)C(=O)N[C@@H](CCCCN)C(=O)N[C@H](C(=O)N[C@@H](C)C(=O)N[C@@H](CC(C)C)C(=O)N[C@@H](CCCCN)C(=O)NCC(=O)N[C@@H](C)C(=O)N[C@@H](C)C(=O)N[C@@H](CCCCN)C(=O)N[C@@H](CCC(=O)O)C(=O)N[C@@H](CC(C)C)C(=O)N[C@@H](C)C(=O)N[C@@H](CO)C(=O)N[C@H](C(=O)N[C@@H](Cc1ccc(O)cc1)C(=O)N[C@@H](CC(C)C)C(=O)N[C@@H](Cc1cnc[nH]1)C(=O)O)[C@@H](C)O)[C@@H](C)O)[C@@H](C)CC` [GIGGKILSGLKTALKGAAKELASTYLH]: the MIC in [8] came out at 5.56 µM (≈ 15 µg/mL); in assay [9], 0.334 µM (≈ 0.9 µg/mL); in assay [10], 1.15 µM (≈ 3.1 µg/mL); in assay [11] it was 1.15 µM (≈ 3.1 µg/mL); in [12] it was 0.556 µM (≈ 1.5 µg/mL); in [13], 0.334 µM (≈ 0.9 µg/mL). In assay [14], this compound registered an MIC of 0.334 µM (≈ 0.9 µg/mL).
Consider `CC[C@H](C)[C@H](NC(=O)CN)C(=O)NCC(=O)NCC(=O)N[C@H](C(=O)N[C@@H](CC(C)C)C(=O)N[C@@H](CC(C)C)C(=O)N[C@@H](CO)C(=O)N[C@@H](C)C(=O)NCC(=O)N[C@@H](CCCCN)C(=O)N[C@@H](C)C(=O)N[C@@H](C)C(=O)N[C@@H](CC(C)C)C(=O)N[C@@H](CCCCN)C(=O)NCC(=O)N[C@@H](CC(C)C)C(=O)N[C@@H](C)C(=O)N[C@@H](CCCCN)C(=O)N[C@H](C(=O)N[C@@H](CC(C)C)C(=O)N[C@@H](C)C(=O)N[C@@H](CCC(=O)O)C(=O)N[C@@H](CCCCN)C(=O)N[C@@H](Cc1ccc(O)cc1)C(=O)N[C@@H](C)C(=O)N[C@@H](CC(N)=O)C(N)=O)C(C)C)C(C)C` [GIGGVLLSAGKAALKGLAKVLAEKYAN], for which the MIC worked out at 5.74 µM (≈ 15 µg/mL) in assay [8]; 0.574 µM (≈ 1.5 µg/mL) in [9]; 5.74 µM (≈ 15 µg/mL) in assay [10]; 1.03 µM (≈ 2.7 µg/mL) in assay [11]; 1.03 µM (≈ 2.7 µg/mL) in assay [12]; 1.03 µM (≈ 2.7 µg/mL) in [13]. Besides, the MIC in [14] came out at 1.03 µM (≈ 2.7 µg/mL).
In the case of `CC[C@H](C)[C@H](NC(=O)CN)C(=O)N[C@H](C(=O)N[C@@H](C)C(=O)NCC(=O)N[C@@H](C)C(=O)N[C@H](C(=O)N[C@H](C(=O)N[C@@H](CCCCN)C(=O)N[C@H](C(=O)N[C@@H](CCCCN)C(=O)N[C@@H](CCCCN)C(N)=O)[C@@H](C)CC)[C@@H](C)CC)[C@@H](C)CC)[C@@H](C)CC` [GIIAGAIIKIKK], the MIC was no less than 32 µM in assay [15] and 64 µM (≈ 78.3 µg/mL) in assay [14].
In the case of `CC[C@H](C)[C@H](N)C(=O)N[C@@H](CC(=O)O)C(=O)N[C@@H](Cc1c[nH]c2ccccc12)C(=O)N[C@@H](CCCCN)C(=O)N[C@@H](CCCCN)C(=O)N[C@@H](CC(C)C)C(=O)N[C@@H](CC(C)C)C(=O)N[C@@H](CC(=O)O)C(=O)N1CCC[C@H]1C(=O)N[C@@H](C)C(=O)N[C@@H](CCCCN)C(=O)N[C@@H](CCC(N)=O)C(=O)N[C@H](C(=O)N[C@@H](CC(C)C)C(N)=O)[C@@H](C)CC` [IDWKKLLDPAKQIL], the MIC in [15] was no less than 128 µM; in [16], 1020 µM (≈ 1720 µg/mL); in assay [17], 512 µM (≈ 860 µg/mL); in assay [14], 256 µM (≈ 430 µg/mL).
Consider `CC[C@H](C)[C@H](NC(=O)[C@H](CC(N)=O)NC(=O)[C@H](CCCN=C(N)N)NC(=O)[C@H](C)NC(=O)[C@H](CCSC)NC(=O)[C@H](CCCCN)NC(=O)[C@H](CCC(=O)O)NC(=O)[C@@H](NC(=O)[C@H](CCCCN)NC(=O)[C@H](CCCCN)NC(=O)[C@H](Cc1ccccc1)NC(=O)[C@@H](NC(=O)[C@H](CCCCN)NC(=O)[C@H](Cc1c[nH]c2ccccc12)NC(=O)[C@@H](N)CCCCN)C(C)C)[C@@H](C)CC)C(=O)N[C@@H](CCCN=C(N)N)C(=O)N[C@@H](CC(N)=O)C(=O)N[C@@H](CCCCN)C(=O)N[C@H](C(=O)N[C@H](C(=O)N[C@@H](CCCCN)C(N)=O)C(C)C)[C@@H](C)CC` [KWKVFKKIEKMARNIRNKIVK], for which the MIC was 6 µM (≈ 15.9 µg/mL) in assay [18], greater than 12 µM in [19] and greater than 3 µM in assay [20].
In the case of `CC(C)C[C@H](NC(=O)[C@H](Cc1c[nH]c2ccccc12)NC(=O)[C@H](CCCCN)NC(=O)[C@H](CCCCN)NC(=O)[C@@H](N)CC(C)C)C(=O)N[C@@H](CCCCN)C(N)=O` [LKKWLK], the MIC in assay [21] was greater than 245 µM; in assay [17], greater than 245 µM; in assay [22], no less than 245 µM; in [23], no less than 245 µM; in assay [24] it was no less than 245 µM; in assay [25], no less than 245 µM. For the same compound, the MIC in assay [14] and in assay [20] was greater than 245 µM throughout.
For `CC[C@H](C)[C@H](NC(=O)[C@@H](N)CCCN=C(N)N)C(=O)N[C@@H](CCCCN)C(=O)N[C@@H](CCCN=C(N)N)C(=O)N[C@@H](Cc1c[nH]c2ccccc12)C(=O)N[C@@H](Cc1c[nH]c2ccccc12)C(=O)N[C@@H](Cc1c[nH]c2ccccc12)C(=O)N[C@@H](Cc1c[nH]c2ccccc12)C(=O)N[C@@H](CCCN=C(N)N)C(=O)O` [RIKRWWWWR], the MIC in [1] is 2.7 µM (≈ 3.98 µg/mL); in assay [2], 1.3 µM (≈ 1.91 µg/mL); in [3] it was 1.3 µM (≈ 1.91 µg/mL); in [4] it was 2.7 µM (≈ 3.98 µg/mL); in assay [5], no less than 86.3 µM; in assay [6], 10.8 µM (≈ 15.9 µg/mL). The MIC in assay [7] amounted to 5.4 µM (≈ 7.95 µg/mL).
For `CC(C)C[C@H](NC(=O)[C@H](CC(C)C)NC(=O)[C@H](CCCCN)NC(=O)[C@H](CCCCN)NC(=O)[C@H](Cc1c[nH]c2ccccc12)NC(=O)[C@H](CCCN=C(N)N)NC(=O)[C@H](CCCCN)NC(=O)[C@H](CC(C)C)NC(=O)[C@H](CC(C)C)NC(=O)[C@@H](N)Cc1c[nH]c2ccccc12)C(N)=O` [WLLKRWKKLL], the MIC in assay [15] was found to be 16 µM (≈ 22.1 µg/mL); in assay [3] it was 32 µM (≈ 44.3 µg/mL); in assay [14], 64 µM (≈ 88.5 µg/mL); in assay [20] it was 8 µM (≈ 11.1 µg/mL).
`CC[C@H](C)[C@H](NC(=O)[C@H](Cc1ccc(O)cc1)NC(=O)[C@@H](NC(=O)[C@H](CCCN=C(N)N)NC(=O)[C@H](Cc1c[nH]c2ccccc12)NC(=O)[C@H](CCCN=C(N)N)NC(=O)[C@H](Cc1ccccc1)NC(=O)[C@H](CCCCN)NC(=O)[C@@H](N)Cc1ccc(O)cc1)[C@@H](C)CC)C(=O)O` [YKFRWRIYI]: the MIC in assay [1] is 2.9 µM (≈ 3.9 µg/mL); in assay [2], 1.4 µM (≈ 1.88 µg/mL); in assay [3], 2.9 µM (≈ 3.9 µg/mL); in [4], no less than 92.8 µM; in assay [5] it was no less than 92.8 µM; in assay [6], 2.9 µM (≈ 3.9 µg/mL). The compound further displayed an MIC in assay [7] greater than 92.8 µM.
